# Entries after “also recorded” stand apart in the source; their conditions may differ.
# How the values were obtained:
# Non-naïve T cells = experiment: Expansion of non-naïve T cells with 2-DG; format: cell-based, human; settings: 4 mM 2-DG
# Experimental: T cell activation and expansion: T cells (seeding density 1×10^6 vc/mL) were activated with DYNABEADS® Human T-Expander CD3/CD28 (Thermo Fisher Scientific, Cat. No. 11141D) at a ratio of 3 beads per T cell and cultured in serum-free medium, animal origin free medium. T cells were counted on days 5, 7, 10, and 12 on a Vi-CELL XR analyzer (Beckman Coulter, Indianapolis IN) and fed with or without 2-DG (0.25 mM, 0.5 mM, 1 mM, 2 mM, and 4 mM) and 5% human AB serum to a density of 5×10^5 vc/mL on days 3, 5, and 7 and 1×10^6 vc/mL on day 10. For some studies, CD8+ and CD4+ T cells were isolated from PBMCs by negative selection using Untouched Human CD8+ and CD4+ T Cells Kits. Naïve and non-naïve T cells were isolated from enriched T cells by positive selection using CD45RA nanobeads (Miltenyi). […]
# Primary human T cells [1] = experiment: Cytokine production upon re-stimulation (35-Plex Luminex) with 2-DG; format: cell-based; settings: expanded 12 days, multiplexed cytokine assay
# From the text: Cytokine Profiles: Primary human T cells from normal donors were negatively isolated from PBMCs with the DYNABEADS® UNTOUCHED™ Human T Cells kit (Thermo Fisher Scientific, Cat. No. 11344D). T cells (seeding density 1×10^6 vc/mL) were activated with DYNABEADS® Human T-Expander CD3/CD28 (Thermo Fisher Scientific, Cat. No. 11141D) at a ratio of 3 beads per T cell and cultured in serum-free and animal origin free medium or control medium X-VIVO™ 15 (Lonza, Cat. No. BE02-054Q) supplemented with 5% human AB serum. T cells were counted on days 5, 7, 10, and 12 on a Vi-CELL XR analyzer (Beckman Coulter, Indianapolis IN) and fed to a density of 5×10^5 vc/mL on days 3, 5, and 7 and to a density of 1×10^6 vc/mL on day 10. DYNABEADS® were magnetically removed from cultures on day 10 and cells were spun to remove conditioned medium and rested overnight in fresh medium. […]
# T cells were expanded for 12 days and re-stimulated with DYNABEADS® Human T-Expander CD3/CD28. Cytokine production upon re-stimulation was assessed with Invitrogen Cytokine Human Magnetic 35-Plex Panel for LUMINEX™. […]
# T cells were expanded for 12 days and re-stimulated with DYNABEADS® Human T-Expander CD3/CD28. Cytokine production upon re-stimulation was assessed with Invitrogen Cytokine Human Magnetic 35-Plex Panel for LUMINEX™.
# Primary human T cells [2] = experiment: T cell expansion with 2-DG introduced at days 0, 3, 5, 7 or at every feed; format: cell-based
# Experimental: Stimulation of T cells with DYNABEADS® Human T-Expander CD3/CD28 at a ratio of 3 beads per T cell and cultured in serum-free, animal origin free medium and culturing the cells with 2-DG. Followed by feeding the cells with 2-DG at various time points (day 3, day 5, day 7, and every time cells were fed).
# Treatment with supplement was started on day 0, 3, 5, 7 and maintained with subsequent feedings. T cells were cultured for 12 days in serum-free T cell medium and in X-VIVO™ 15 medium supplemented with 5% human AB serum.
# 2-DG was cultured with the cells on day 0, 3, 5, 7 and maintained with subsequent feedings. T cells were cultured for 12 days in serum-free T cell medium and in medium with 5% Human AB Serum.
# Primary human T cells [3] = experiment: CD8+/CD4+ phenotype with 2-DG and CD Lipid Concentrate 1 or 2; format: cell-based
# Experimental: FIGS. 48 and 49 represent the data from Tables 42 and 43 which depicts the gating strategy for differentiation phenotyping. T cells expanded for 10 days were stained with antibodies against CD3, CD4, and CD8. Flow cytometric analysis was performed in a Beckman-Coulter Gallios analyzer.
# Phenotype: Primary human T cells were expanded for 10 days with and without 2-DG and 5% human AB serum. DYNABEADS® were removed from 2×10^6 cells by magnetic separation. Surface staining was performed with antibodies against CD3 (Invitrogen, Cat. No. CD0329), CD4 (Molecular Probes, Cat. No. A15858), CD8 (Invitrogen, Cat. No. MHCD0828). Flow cytometric analysis was performed on a Gallios flow cytometer and Kaluza software (Beckman Coulter, Indianapolis IN).
# FIGS. 48 and 49 represent the fold increase in CD8:CD4 ratio compared to day 0.
smiles,measurement,setting,value
"O=CC[C@@H](O)[C@H](O)[C@H](O)CO [2-DG, 2-Deoxy-D-Glucose]",effect of 2-DG on growth of non-naïve T cells,Non-naïve T cells; 12 days,did not affect growth of either cell type; also recorded: modest effect
same,Cultured Non-Naïve T Cell Population Doublings,Non-naïve T cells; day 5,−0.24
same,Cultured Non-Naïve T Cell Population Doublings,Non-naïve T cells; day 7,1.25
same,Cultured Non-Naïve T Cell Population Doublings,Non-naïve T cells; day 10,3.37
same,Cultured Non-Naïve T Cell Population Doublings,Non-naïve T cells; day 12,4.64
same,cytokine production / function of the cells upon re-stimulation,Primary human T cells [1],no change in cytokine production; also recorded: does not alter the function of the cells
same,Cultured T Cell Population Doublings,"Primary human T cells [2]; 0.25 mM 2-DG at Day 0, culture day 0",0
same,Cultured T Cell Population Doublings,"Primary human T cells [2]; 0.25 mM 2-DG at Day 0, culture day 5",1.71
same,Cultured T Cell Population Doublings,"Primary human T cells [2]; 0.25 mM 2-DG at Day 0, culture day 7",3.69
same,Cultured T Cell Population Doublings,"Primary human T cells [2]; 0.25 mM 2-DG at Day 0, culture day 10",6.53
same,Cultured T Cell Population Doublings,"Primary human T cells [2]; 0.25 mM 2-DG at Day 0, culture day 12",7.47
same,Cultured T Cell Population Doublings,"Primary human T cells [2]; 0.25 mM 2-DG at Day 0, day 5",1.71
same,Cultured T Cell Population Doublings,"Primary human T cells [2]; 0.25 mM 2-DG at Day 0, day 7",3.69
same,Cultured T Cell Population Doublings,"Primary human T cells [2]; 0.25 mM 2-DG at Day 0, day 10",6.53
same,Cultured T Cell Population Doublings,"Primary human T cells [2]; 0.25 mM 2-DG at Day 0, day 12",7.47
same,Cultured T Cell Population Doublings,"Primary human T cells [2]; 0.25 mM 2-DG at Day 3, culture day 0",0
same,Cultured T Cell Population Doublings,"Primary human T cells [2]; 0.25 mM 2-DG at Day 3, culture day 5",1.90
same,Cultured T Cell Population Doublings,"Primary human T cells [2]; 0.25 mM 2-DG at Day 3, culture day 7",3.36
same,Cultured T Cell Population Doublings,"Primary human T cells [2]; 0.25 mM 2-DG at Day 3, culture day 10",5.80
same,Cultured T Cell Population Doublings,"Primary human T cells [2]; 0.25 mM 2-DG at Day 3, culture day 12",6.34
same,Cultured T Cell Population Doublings,"Primary human T cells [2]; 0.25 mM 2-DG at Day 3, day 5",1.90
same,Cultured T Cell Population Doublings,"Primary human T cells [2]; 0.25 mM 2-DG at Day 3, day 7",3.36
same,Cultured T Cell Population Doublings,"Primary human T cells [2]; 0.25 mM 2-DG at Day 3, day 10",5.80
same,Cultured T Cell Population Doublings,"Primary human T cells [2]; 0.25 mM 2-DG at Day 3, day 12",6.34
same,Cultured T Cell Population Doublings,"Primary human T cells [2]; 0.25 mM 2-DG at Day 5, culture day 0",0
same,Cultured T Cell Population Doublings,"Primary human T cells [2]; 0.25 mM 2-DG at Day 5, culture day 5",1.75
same,Cultured T Cell Population Doublings,"Primary human T cells [2]; 0.25 mM 2-DG at Day 5, culture day 7",3.50
same,Cultured T Cell Population Doublings,"Primary human T cells [2]; 0.25 mM 2-DG at Day 5, culture day 10",5.82
same,Cultured T Cell Population Doublings,"Primary human T cells [2]; 0.25 mM 2-DG at Day 5, culture day 12",6.59
same,Cultured T Cell Population Doublings,"Primary human T cells [2]; 0.25 mM 2-DG at Day 5, day 5",1.75
same,Cultured T Cell Population Doublings,"Primary human T cells [2]; 0.25 mM 2-DG at Day 5, day 7",3.50
same,Cultured T Cell Population Doublings,"Primary human T cells [2]; 0.25 mM 2-DG at Day 5, day 10",5.82
same,Cultured T Cell Population Doublings,"Primary human T cells [2]; 0.25 mM 2-DG at Day 5, day 12",6.59
same,Cultured T Cell Population Doublings,"Primary human T cells [2]; 0.25 mM 2-DG at Day 7, culture day 0",0
same,Cultured T Cell Population Doublings,"Primary human T cells [2]; 0.25 mM 2-DG at Day 7, culture day 5",1.70
same,Cultured T Cell Population Doublings,"Primary human T cells [2]; 0.25 mM 2-DG at Day 7, culture day 7",3.48
same,Cultured T Cell Population Doublings,"Primary human T cells [2]; 0.25 mM 2-DG at Day 7, culture day 10",5.83
same,Cultured T Cell Population Doublings,"Primary human T cells [2]; 0.25 mM 2-DG at Day 7, culture day 12",6.44
same,Cultured T Cell Population Doublings,"Primary human T cells [2]; 0.25 mM 2-DG at Day 7, day 5",1.70
same,Cultured T Cell Population Doublings,"Primary human T cells [2]; 0.25 mM 2-DG at Day 7, day 7",3.48
same,Cultured T Cell Population Doublings,"Primary human T cells [2]; 0.25 mM 2-DG at Day 7, day 10",5.83
same,Cultured T Cell Population Doublings,"Primary human T cells [2]; 0.25 mM 2-DG at Day 7, day 12",6.44
same,population doublings,"Primary human T cells [2]; 0.25 mM 2-DG at day 0, 3, 5, 7 and every feed",6 to 7 population doublings
same,Cultured T Cell Population Doublings,"Primary human T cells [2]; 0.25 mM 2-DG at every feed, culture day 0",0
same,Cultured T Cell Population Doublings,"Primary human T cells [2]; 0.25 mM 2-DG at every feed, culture day 5",1.61
same,Cultured T Cell Population Doublings,"Primary human T cells [2]; 0.25 mM 2-DG at every feed, culture day 7",3.80
same,Cultured T Cell Population Doublings,"Primary human T cells [2]; 0.25 mM 2-DG at every feed, culture day 10",6.03
same,Cultured T Cell Population Doublings,"Primary human T cells [2]; 0.25 mM 2-DG at every feed, culture day 12",6.82
same,Cultured T Cell Population Doublings,"Primary human T cells [2]; 0.25 mM 2-DG at every feed, day 5",1.61
same,Cultured T Cell Population Doublings,"Primary human T cells [2]; 0.25 mM 2-DG at every feed, day 7",3.80
same,Cultured T Cell Population Doublings,"Primary human T cells [2]; 0.25 mM 2-DG at every feed, day 10",6.03
same,Cultured T Cell Population Doublings,"Primary human T cells [2]; 0.25 mM 2-DG at every feed, day 12",6.82
same,fold increase in CD8:CD4 ratio compared to day 0,Primary human T cells [3]; 2-DG with CLC1,1.6 fold
same,fold increase in CD8:CD4 ratio compared to day 0,Primary human T cells [3]; 2-DG with CLC2,1.4 fold

# — patent US20240076609A1, “COMPOSITIONS AND METHODS FOR CULTURING AND EXPANDING CELLS” (LIFE TECHNOLOGIES CORPORATION, priority 2017, published 2024)
